Data taken from patent US11845751B2, “Triazolotriazine derivatives as A2A receptor antagonists” (ZHEJIANG VIMGREEN PHARMACEUTICALS, LTD., priority 2018, dated 2023).

Each compound was assayed against T1, A2AR (hADORA2A-HEK293 cells) (Homo sapiens, UniProt P29274) (assay: functional cAMP production assay: NECA stimulation of cAMP production and its inhibition by A2AR antagonists). Settings: A2AR-expressing HEK293 cells (hADORA2A-HEK293); NECA at EC80; TR-FRET cAMP readout; read-out: A2AR Potency (IC50, inhibition of NECA-stimulated cAMP production).
T1 construct: expressed in transfected cells; host or cells: HEK293 (hADORA2A-HEK293)
Format: cell-based
Protocol: The antagonistic activities of the triazolotriazine derivatives of the present invention were measured in a functional cAMP production assay. The assay consists of NECA stimulation of cAMP production and its inhibition by A2AR antagonists in A2AR-expressing HEK293 cells (hADORA2A-HEK293). All cells were cultured in complete medium at 37° C. in 5% CO2. The cells were detached with pancreatin and collected at 200 g for 5 min. After resuspending the cells in fresh complete medium, the cell viability is counted using the trypan blue exclusion method. […] After the cells were diluted with Hank's buffered saline solution containing HEPES (5 mM), BSA stabilizer (0.1%) and […] Rolipram (10 μM), cells were loaded into white opaque 384-well plates (˜500 cells/well, 10 μl/well) and incubated with test compound at a suitable concentration range (11 concentrations) for 20 min at room temperature. Then the A2A receptor agonist NECA (final concentration=EC80, which was determined in the same experiment slightly earlier) was added to the sample and the mixture was incubated again for 30 min at 37° C. […] The inhibition rate (%) was calculated according to the following formula. The IC50 values were calculated from concentration-inhibition (%) curves after log transformation.

T1 sequence (P29274 whole entry): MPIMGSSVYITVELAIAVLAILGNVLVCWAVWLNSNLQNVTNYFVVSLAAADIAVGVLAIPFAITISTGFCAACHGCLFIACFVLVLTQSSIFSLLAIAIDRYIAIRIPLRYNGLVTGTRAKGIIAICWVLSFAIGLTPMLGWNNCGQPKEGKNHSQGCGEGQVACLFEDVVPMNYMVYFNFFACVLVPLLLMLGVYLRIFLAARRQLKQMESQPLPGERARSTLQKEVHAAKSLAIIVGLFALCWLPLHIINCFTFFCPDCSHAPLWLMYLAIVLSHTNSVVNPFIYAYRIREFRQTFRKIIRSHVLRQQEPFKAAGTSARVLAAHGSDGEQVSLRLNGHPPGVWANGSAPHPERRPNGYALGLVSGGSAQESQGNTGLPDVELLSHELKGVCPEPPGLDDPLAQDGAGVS

Row | SMILES | IC50 [nM]
1 | Nc1nc(NCCc2ccc(NC(=O)Cc3ccncc3)cc2)nc2nc(-c3ccco3)nn12 [Example 276, N-(4-(2-((7-Amino-2-(furan-2-yl)-[1,2,4]triazolo[1,5-a][1,3,5]triazin-5-yl)amino)ethyl)-phenyl)-2-(pyridin-4-yl)acetamide] | 17.5
2 | CN1CCC(C(=O)Nc2ccc(CCNc3nc(N)n4nc(-c5ccco5)nc4n3)cc2)CC1 [Example 241, N-(4-(2-((7-Amino-2-(furan-2-yl)-[1,2,4]triazolo[1,5-a][1,3,5]triazin-5-yl)amino)ethyl)-phenyl)-1-methylpiperidine-4-carboxamide] | 11.2
3 | Nc1nc(NCCc2ccncn2)nc2nc(-c3ccco3)nn12 [Example 44, 2-(Furan-2-yl)-N5-(2-(pyrimidin-4-yl)ethyl)-[1,2,4]triazolo[1,5-α][1,3,5]triazine-5,7-diamine] | 63.8
4 | Nc1nc(NCCc2ccc(OCCCN3CCCCC3)cc2)nc2nc(-c3ccco3)nn12 [Example 54, 2-(Furan-2-yl)-N5-(4-(3-(piperidin-1-yl)propoxy)phenethyl)-[1,2,4]triazolo[1,5-α][1,3,5]-triazine-5,7-diamine] | 19.2

Next, values leading:

Row | IC50 [nM] | SMILES
5 | 29 | Nc1nc(NCCc2ccc(OCCCN3CCCC3)cc2)nc2nc(-c3ccco3)nn12 [Example 19, 2-(Furan-2-yl)-N5-(4-(3-(pyrrolidin-1-yl)propoxy)phenethyl)-[1,2,4]triazolo[1,5-α][1,3,5]-triazine-5,7-diamine]
6 | 21.5 | COCCOCCOCCOc1ccc(CCNc2nc(N)n3nc(-c4ccco4)nc3n2)cc1 [Example 65, 2-(Furan-2-yl)-N5-(4-(2-(2-(2-methoxyethoxy)ethoxy)ethoxy)phenethyl)-[1,2,4]triazolo[1,5-α][1,3,5]triazine-5,7-diamine]
7 | 7 | Nc1nc(NCCc2ccc(OCc3ccncc3)cc2)nc2nc(-c3ccco3)nn12 [Example 29, 2-(Furan-2-yl)-N5-(4-(pyridin-4-ylmethoxy)phenethyl)-[1,2,4]triazolo[1,5-α][1,3,5]triazine-5,7-diamine]
8 | 43.2 | Nc1nc(NCCc2ccc(OCC3CCN(Cc4cccnc4)C3)cc2)nc2nc(-c3ccco3)nn12 (stereo in doubt) [Example 283, (S)-2-(Furan-2-yl)-N5-(4-((1-(pyridin-3-ylmethyl)pyrrolidin-3-yl)methoxy)phenethyl)-[1,2,4]triazolo[1,5-a][1,3,5]triazine-5,7-diamine]
9 | 163 | CN(C)Cc1ccc(CCNc2nc(N)n3nc(-c4ccco4)nc3n2)cc1 [Example 306, N5-(4-((Dimethylamino)methyl)phenethyl)-2-(furan-2-yl)-[1,2,4]triazolo[1,5-a][1,3,5]triazine-5,7-diamine]
10 | 15 | CN(C)CCCOc1ccc(CCNc2cc(N)n3nc(-c4ccco4)nc3c2)cc1 [Example 113, N^7-(4-(3-(Dimethylamino)propoxy)phenethyl)-2-(furan-2-yl)-[1,2,4]triazolo[1,5-a]pyridine-5,7-diamine]
